Structures are written as SMILES. Calls of active or inactive are those of the source. No rule for the calls is given here.

In PubChem BioAssay AID743418 (The Scripps Research Institute Molecular Screening Center, 2014) one finds EC50 data, which are given here for 27 molecules.

In the assay the target is Sphingosine 1-phosphate receptor 2 (Homo sapiens) (UniProt O95136). In words: S1P2 receptor agonist activity, late-stage follow-up, counter-screen for S1PR3 antagonist project, cell-based, fluorescence, dose response (AID 743418). The note with it: S1P2-expressing cells, agonist-mode fluorescence read-out. (In general: Counterscreens check selectivity or assay interference.)
Sphingosine 1-phosphate receptor 2 (Homo sapiens), sequence (O95136 whole entry, looked up): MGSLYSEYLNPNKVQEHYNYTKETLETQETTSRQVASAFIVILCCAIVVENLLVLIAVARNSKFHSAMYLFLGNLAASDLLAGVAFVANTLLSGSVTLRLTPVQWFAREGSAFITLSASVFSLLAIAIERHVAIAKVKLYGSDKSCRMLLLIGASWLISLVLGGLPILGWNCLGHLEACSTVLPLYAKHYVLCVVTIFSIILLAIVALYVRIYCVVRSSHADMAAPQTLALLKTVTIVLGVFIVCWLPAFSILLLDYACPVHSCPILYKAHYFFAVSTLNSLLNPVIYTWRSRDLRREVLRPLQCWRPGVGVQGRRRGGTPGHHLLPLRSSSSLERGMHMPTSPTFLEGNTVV
`O=C(NC(c1cccc(Cl)c1)c1nc(-c2ccccc2)no1)c1ccc(Cl)c(Cl)c1` (configuration not stated): the EC50 (in general, the concentration giving half of the maximal effect) was > 50 µM (inactive).

`O=C(NC(c1ccc(Cl)cc1)c1nc(-c2ccccn2)no1)c1cccc(Cl)c1` (configuration not stated): the EC50 was > 50 µM (inactive).

For `O=C(NC(c1nc(-c2ccccc2)no1)C1CCOCC1)c1ccc(Cl)c(Cl)c1` (configuration not stated), the EC50 was > 50 µM (inactive).

On to `O=C(NC(c1ccccc1)c1nc(-c2ccccc2)no1)c1cccc(Cl)c1` (configuration not stated), for which the EC50 is > 50 µM (inactive).

Regarding `O=C(NC(c1cccc(Cl)c1)c1nc(-c2ccccc2)no1)c1cc(Cl)cc(Cl)c1` (configuration not stated), the EC50 was > 50 µM (inactive).

`O=C(NC(c1ccc(Cl)cc1)c1nc(-c2ccccc2)no1)c1cccc(Br)c1` (configuration not stated): the EC50 is > 50 µM (inactive).

`O=C(NC(c1ccc(Cl)c(Cl)c1)c1nc(-c2ccccc2)no1)c1cccc(Cl)c1` (configuration not stated): the EC50 was > 50 µM (inactive).

Take `O=C(NC(c1ccc(Cl)c(Cl)c1)c1nc(-c2ccccc2)no1)c1ccccc1` (configuration not stated): the EC50 was > 50 µM (inactive).

In the case of `O=C(NC(c1ccccc1)c1nc(-c2ccccc2)no1)c1cccc(Cl)n1` (configuration not stated), the EC50 was > 50 µM (inactive).

For the molecule `O=C(NC(c1ccccc1)c1nc(-c2ccccc2)no1)c1cccc(Br)c1` (configuration not stated), the EC50 was > 50 µM (inactive).

In the case of `O=C(NC(c1nc(-c2ccccc2)no1)C1CCCCC1)c1ccc(Cl)c(Cl)c1` (configuration not stated), the EC50 was > 50 µM (inactive).

Turning to `O=C(NC(c1cccc(Cl)c1)c1nc(-c2ccccc2)no1)c1cccc(Cl)c1` (configuration not stated), the EC50 is > 50 µM (inactive).

Take `O=C(NC(c1ccccc1)c1nc(-c2ccccc2)no1)c1ccc(Cl)cc1` (configuration not stated): the EC50 was > 50 µM (inactive).

In the case of `O=C(NC(Cc1ccccc1)c1nc(-c2ccccc2)no1)c1cccc(Cl)c1` (configuration not stated), the EC50 was > 50 µM (inactive).

Turning to `O=C(NC(c1ccc(Cl)cc1)c1nc(-c2ccccc2)no1)c1cccc(Cl)c1` (configuration not stated), the EC50 is > 50 µM (inactive).

As for `O=C(c1cccc(Cl)c1)N(CCO)C(c1ccc(Cl)c(Cl)c1)c1nc(-c2ccccc2)no1` (configuration not stated), the EC50 was > 50 µM (inactive).

Consider `O=C(NC(c1ccc(Cl)c(Cl)c1)c1nc(-c2ccccc2)no1)c1ccc(Cl)c(Cl)c1` (configuration not stated), for which the EC50 is > 50 µM (inactive).

As to `CCc1ccc(C(NC(=O)c2cccc(Cl)c2)c2nc(-c3ccccc3)no2)cc1` (configuration not stated), the EC50 was > 50 µM (inactive).

With `O=C(NC(c1ccc(Cl)cc1)c1nc(-c2ccccc2)no1)c1ccc(Cl)c(Cl)c1` (configuration not stated), the EC50 was > 50 µM (inactive).

Turning to `Cc1ccc(C(NC(=O)c2cccc(Cl)c2)c2nc(-c3ccccc3)no2)cc1` (configuration not stated), the EC50 was > 50 µM (inactive).

As to `Cc1ccc(C(=O)NC(c2ccccc2)c2nc(-c3ccccc3)no2)cc1` (configuration not stated), the EC50 was > 50 µM (inactive).

Take `N#Cc1ccc(C(=O)NC(c2ccc(Cl)c(Cl)c2)c2nc(-c3ccccc3)no2)cc1` (configuration not stated): the EC50 is > 50 µM (inactive).

As to `COc1ccc(C(=O)NC(c2ccccc2)c2nc(-c3ccccc3)no2)cc1` (configuration not stated), the EC50 was > 50 µM (inactive).

For `O=C(NC(c1ccc(Cl)cc1)c1nc(-c2cccc(Cl)c2)no1)c1cccc(Cl)c1` (configuration not stated), the EC50 was > 50 µM (inactive).

With `O=C(NC(c1ccc(Cl)c(Cl)c1)c1nc(-c2ccccc2)no1)c1ccc(Cl)cc1` (configuration not stated), the EC50 was > 50 µM (inactive).

For `O=C(NC(c1ccc(Br)cc1)c1nc(-c2ccccc2)no1)c1ccc(Cl)c(Cl)c1` (configuration not stated), the EC50 was > 50 µM (inactive).

`O=C(NC(c1ccc(Cl)cc1)c1nc(-c2ccccc2)no1)c1ccc(Cl)c(Br)c1` (configuration not stated): the EC50 is > 50 µM (inactive).
